“Also recorded” adds a separate entry of the source.
Key:
[1] = system: NZM11 (BRAF V600E mutant metastatic melanoma) cells; test: Sulforhodamine B (SRB) assay of viability / proliferation, auranofin conjugates (Example 8); type: cell-based, human; conditions: 200 μM, 48 hours
Protocol: FIG. 8: Effect of 136 and 137 (auranofin conjugates) on viability of NZM11 melanoma cells. Cells were incubated with 136 and 137 at 10 μM final concentration and kept at 37 °C for 48 hours. Pantothenic acid (PA), CJ-15,801, and biotin were tested at 200 μM final concentration. […] Two batches of auranofin were tested at 10 μM final concentration.
FIG. 9: The viability data from FIG. 8 was normalised to the treatment plate and DMSO control and plotted as a percentage of cell growth. Individual data points represent technical replicates. Curve indicates non-linear regression slope, which allows determination of IC50 values.
Materials and methods: NZM11 cells were cultured in MEMα media with an initial count of 1020 cells/μL. The cells were then diluted to get 25 cells per μL and 200 μL of this suspension (5000 cells per well), dispensed into 96 well plates and left to settle for 24 hours. 10 mM stock solutions of 136, 137, and auranofin were diluted with 1% FBS MEMα media to give 10 nM, 30 nM, 100 nM, 300 nM, 1 μM, 3 μM, 10 μM, 30 μM and 100 μM solutions. After 24 hours the media was removed from the 96 well plates. To individual wells 200 μL of each dilution were dispensed in triplicate for three groups (136, 137, and auranofin): 1% FBS MEMα media only (DMSO control), 10 nM, 30 nM, 100 nM, 300 nM, 1 μM, 3 μM, 10 μM, 30 μM and 100 μM. The cells were incubated at 37 °C, 5% 02 and 5% CO2 for 48 hours.
In order to test the potency of 136 and 137, the IC50 values were calculated for these auranofin conjugates. For analysis of the treatment plate (Tz) a SRB assay was utilised. For this assay, 50 μL of 50% (w/v) ice-cold trichloroacetic acid (TCA) was added to each well. To achieve this, 5 g of TCA was made up to 10 mL with milliQ H2O. This was cooled on ice. Incubation was carried out for 1 hour at 4 °C to fix cells. TCA and media were removed from cells. Five milliQ washes were carried out and the plate was left to air dry. Next, 50 μL of 0.4% SRB solution (prepared in 1% acetic acid) was added to each well and incubated for 10 minutes at room temperature. The SRB solution was removed and five milliQ washes were carried out. Then, 100 μL of 10 mM Tris solution was added to each well, and the dye was solubilised. Absorbance at 515 nm was read on plate reader. Data was normalized to Tz plate, as per NCI60 screening method (https://dtp.cancer.gov/discovery_development/nci-60/methodology.htm).

glioblastoma cells = test: Protein content after 48 hour incubation (Example 9); type: cell-based, human; conditions: 5, 25 and 100 μM
Protocol: FIGS. 10A-10B: Protein content of glioblastoma cells after 48 hour incubation with compound 138 or PA at 5, 25 and 100 μM final concentration. To indicates protein levels at the beginning of the test. Control indicates protein levels in cells which were incubated for 48 hours without exposure to 138 or PA.
(§1) Glioblastoma cells were used to determine viability and growth by measurement of protein levels. Protein content of glioblastoma cells was determined after 48 hour incubation with compound 138 or PA at 5, 25 and 100 μM final concentration. For To, protein levels were determined at the start of the test (before addition of test compounds). For the control, protein levels were determined for cells incubated for 48 hours in the absence of the test compounds. Astrocytes were used as a non-cancer cell line control. U87: this cell line has epithelial morphology that was isolated from malignant gliomas from a patient, likely with glioblastoma. SF188: this glioblastoma cell line was derived from the left temporal lobe tumour of a patient. U251: this cell line expresses epidermal growth factor receptor (EGFR) receptors, for inhibition studies. LN229: This cell line has a mutation on TP53; Simple; p.Pro98Leu. LN18: This cell line is negative for glial fibrillary acidic proteins and S100 (S-100) protein. […] GUVW cells were also utilised.

astrocytes = test: as above; type: cell-based, human; conditions: 5, 25 and 100 μM
Protocol: as §1

[2] = system: NZM11 melanoma cancer cell line; test: FACS uptake of BODIPY FL conjugates, 50 nM, 5 min (Example 1); type: cell-based, human
Protocol: FIG. 1. Conjugate compounds coupled to BODIPY FL were tested for uptake using 50 nM each conjugate and 5 minute incubation with HEM (human epidermal melanocytes) and melanoma cell line NZM11 (BRAF V600E mutant metastatic melanoma). Mean fluorescent intensities (MFI). For these tests, n=300-500, mean±SD. Results were from a single experiment done in triplicate. Cells were sorted by FACS.
Materials and methods: NZM11 is an adherent metastatic melanoma cell derived from a patient with a subcutaneous lesion on their mid back. This human metastatic melanoma is identified with code CBA-1398 from Cell bank Australia. […] Cells of NZM11 diluted in MEMα media and cells of HEMnDP (primary melanocyte cell line) diluted in media 254 were left to settle in 96-wells microplate for 48 hours. 10 μL of 10 mM stock solutions in DMSO from 138 and pantothenic acid/pantothenic acid derivatives coupled to BODIPY were diluted with HBSS to afford 100 nM solution. Then, 100 nM compounds and DMSO solutions were diluted 1:1 with MEMα media for NZM11 and media 254 for HEMnDP to afford 50 nM solutions. After the 48 hour settle time, media was removed from the cells and 200 μL of 50 nM media solutions were poured to each well and incubated for 5 minutes at 37 °C. […] The FACS results output represented the mean of the fluorescence intensities (in arbitrary units) measured for cells sorted in every sample

[3] = system: NZM011, NZM009, NZM012, NZM022 and NZM077 cells; test: Flow cytometry uptake into metastatic melanoma lines (Example 11); type: cell-based, human; conditions: 200 nM, 30 minutes, five cell lines
Protocol: FIG. 11: Uptake for compounds 124, 126, and 132 at 200 nM and 30 minute incubation with melanoma cell lines: NZM12 (NZM012) (BRAF V600E mutant metastatic melanoma, homozygous deletion CDKN2A and low invasive cell line), NZM77 (NZM077) (BRAF V600E mutant metastatic melanoma and missense NF1), NZM22 (NZM022) (BRAF G466A mutant metastatic melanoma, P53 241S/T mutant, NF1 non-frameshift insertion and PTEN epigenetic silencing). NZM9 (NZM009) (P53 179C/T mutant and homozygous silencing CDKN2A). NZM11 (NZM011) (BRAF V600E mutant metastatic melanoma and homozygous deletion CDKN2A), as positive control. Mean fluorescent intensities (MFI). 1,500-2,000 cells were obtained. Bars represent mean±SD. Results are from a single experiment done in triplicate. Cells were analysed by FACS.
Methods: For screening, NZM011, NZM009, NZM012, NZM022 and NZM077 cells were suspended at 250 cells per μL in MEMα media and 200 μL was dispensed into 96 well plates. The cells were left to settle for 24 hours for NZM011, NZM012 and NZM077 and 48 hours for NZM009 and NZM022 at 37 °C, 5% O2, 5% CO2. Before addition to the cells, 10 μL of 10 mM stock solutions in DMSO of compounds 124, 126, and 132 were diluted with 1% FBS MEMα media to give a 200 nM solution.
After the appropriate settle time, the media was removed from the 96 well plates and 200 μL of 200 nM conjugate solutions and DMSO control were dispensed to each well (in triplicate) and incubated for 30 minutes at 37 °C, 5% O2, 5% CO2. After 30 minutes, the media was removed and cells washed with PBS. Next, 100 μL of TrypLE trypsin (ThermoFisher Scientific) was added to each well and incubated for 5 minutes at 37 °C. After this, 150 μL of MEMα media (plus 1% FBS for NZM011, NZM012 and NZM077; plus 5% FBS for NZM009 and NZM022) were added. Cells were analysed by flow cytometry using a FACS biosort and FITC filter. Flow cytometry results represent the mean of the fluorescence intensities (in arbitrary units) measured for cells sorted in every sample.

Jurkat cells = test: Flow cytometry time course of uptake (Example 12); type: cell-based, human; conditions: 200 nM
Protocol: FIG. 12: Time course of uptake for compounds 124, 126, and 132 at 200 nM after 5, 30 or 60 minute incubation with Jurkat cells. Mean fluorescent intensities (MFI). 1,000 cells were sorted by FACS. Bars represent mean±SD. Results represents a single experiment done in triplicate.
Materials and methods: For this study, 7.7×10^5 Jurkat cells were centrifuged for 5 minutes at 2500 RPM. The supernatant was removed and the cells were diluted in RPMI media (supplemented with 1% FBS+1% penicillin-streptomycin) to 400 cells/μL. Next, 28 μL of 100 μM stock solutions from compound 124, 126, or 132 were diluted with 6972 μL of RPMI media (supplemented with 1% FBS+1% penicillin-streptomycin) to give a 400 nM solution. Following this, 250 μL of conjugate solutions (giving a 200 nM final concentration) and 250 μL of cell suspensions were then added to each well in a 96 well plate. In addition, 250 μL of media only was added to the DMSO control wells. Incubation was carried out for 5, 30 and 60 minutes at 37 °C in triplicate wells for each compound and time point.
After incubation, cells were centrifuged for 1.5 minutes at 5000 RCF. Supernatant was removed and the cell pellet re-suspended in 200 μL fresh RPMI media, transferred to 96 well-plate and each cell suspension analysed by flow cytometry. Flow cytometry results represent the mean of the fluorescence intensities (in arbitrary units) measured for cells sorted in every sample.

[4] = system: mouse embryonic fibroblasts MEF; test: FACS uptake of BODIPY FL conjugates (Example 4); type: cell-based; conditions: 200 nM, 5 min, S enantiomer vs R
Protocol: FIG. 4B: Conjugate compounds coupled to BODIPY FL were tested for uptake using 200 nM each conjugate and 5 minute incubation with mouse embryonic fibroblasts MEF. Mean fluorescent intensities (MFI). 1,000 cells were sorted by FACS.
Fibroblasts are ubiquitous mesenchymal cells that are thought to play important roles in wound repair and healing, and serve as reservoirs of multipotent progenitors capable of repopulating depleted cell compartments. Primary mouse embryonic fibroblast (MEF) cultures consist of highly heterogeneous populations of distinct cell types. Singhal, P. K., et al., 2016. MEF cells have a limited growth capacity and on prolonged passaging spontaneously immortalize at a low frequency. In contrast to transformation of primary MEF cells that requires the presence of two cooperating oncogenes, immortalised MEF cells can be transformed by a single oncogene (Ras) resulting in a loss of contact inhibition, anchorage-independent growth, and tumour formation in nude mice. Studies of MEF cells have played an important role in the elucidation of the molecular mechanisms underlying cellular immortalization, transformation, and tumorigenesis. Additionally, utilization of MEF cells disrupted for specific genes has provided a powerful tool to analyse the genetic regulation of these cellular processes. Sun and Taneja, 2007. […]

melanoma cell lines = conditions: previous results, read-out: concentration showing inhibition of 50% of the population; cited from earlier work

SMILES: CC(C)(CO)[C@@H](O)C(=O)N/C=C/C(=O)O [Compound 138, (R,E)-3-(2,4-Dihydroxy-3,3-dimethylbutanamido)acrylic acid]
- viability / cell proliferation [1]: little to no effect on cell proliferation
- protein content / protein levels (glioblastoma cells): little to no effect on protein levels
- protein content / protein levels (astrocytes): little to no effect on protein levels

SMILES: CC1=CC(C)=[N+]2C1=Cc1ccc(CCCn3cc(CCNC(=O)/C=C/NC(=O)[C@@H](O)C(C)(C)CO)nn3)n1[B-]2(F)F [Compound 126, (E)-N-((((3-[4,4-Difluoro-5,7-dimethyl-4-bora-3a,4a-diaza-s-indacene-3-yl]propyl)-1H-1,2,3-triazol-4-yl)ethylamino)-3-oxoprop-1-enyl)-2,4-dihydroxy-3,3-dimethylbutanamide]
- mean intensity compared to the 124 conjugate [2]: 25%
- times less uptake than 124 [3]: 5-12 times
- time of highest uptake (Jurkat cells): 60 min
- times lower than 124 uptake (Jurkat cells; 60 minutes): 4 times
- uptake increase compared to DMSO control (Jurkat cells; 60 minutes): three times higher
- lower intensities than the R derivatives [4]: around 50%

SMILES: CC[P](CC)(CC)=[Au][S][C@@H]1O[C@H](COC(C)=O)[C@@H](OC(C)=O)[C@H](OC(C)=O)[C@H]1OC(C)=O [auranofin]
- IC50 (melanoma cell lines): ≤ 500 nM

SMILES: CC(C)(CO)[C@@H](O)C(=O)NCCC(=O)O [pantothenic acid]
- protein content / protein levels (glioblastoma cells): comparable content of proteins with the control; also recorded: little to no effect on protein levels
- protein content / protein levels (astrocytes): comparable content of proteins with the control; also recorded: little to no effect on protein levels
